Data as given in patent publication US20080008991A1, “SYSTEM AND METHOD FOR OPTIMIZING DRUG THERAPY FOR THE TREATMENT OF DISEASES” (priority 2000, published 2008).
Where two headings read alike, the source gives them in different places.

How the values were obtained:
HIV-1 = assay: NIQ as predictor of virologic outcome at week 24; format: in vivo, human (patients)
Method: The normalized inhibitory quotient (NIQ) was determined as: [formula]
Where the IQ in an individual patient (IQpatient) was calculated as ratio of the patient's trough concentration (Cmin) to the susceptibility of the patient's virus to the drug, expressed as fold change compared to wild type virus (Virtual Phenotype). The IQpt was then related to the reference inhibitory quotient (IQref), in which the mean population trough concentration of the drug from the product label was divided by the cut-off value of the fold change for susceptible viruses.
For amprenavir, nelfinavir, and ritonavir, the concentration 12 hours after dosing was used as the Cmin. […]

[1] = Amprenavir plasma trough concentration by LC-MS/MS in treatment-experienced patients; settings: human, in vivo; median; 12 hours after dosing; amprenavir 1200 mg bid with ritonavir or nelfinavir; 17 patients; read-out: Cmin
Method: Patients were enrolled into three parallel treatment groups that included abacavir 300 mg bid, amprenavir 1200 mg bid, and efavirenz 600 mg daily with either low dose ritonavir at 200 mg BID, high dose ritonavir at 500 mg bid, or nelfinavir 1250 mg bid.
Genotyping (VircoGEN II™, VIRCO) and VIRTUAL PHENOTYPE™ were performed on baseline samples. Viral load data were collected at baseline (mean of two pre-therapy samples) and at week 24. Serial pharmacokinetic samples were collected over 12 hours after week 3 for ritonavir-boosted regimens and after week 2 for nelfinavir-boosted regimens.
Amprenavir concentrations in plasma were determined by a validated LC-MS/MS method.
For amprenavir, nelfinavir, and ritonavir, the concentration 12 hours after dosing was used as the Cmin. For each drug, relationships between viral load change at week 24 and the Cmin, fold-change in resistance, and NIQ were fit to a sigmoidal maximum effect model.

HIV = settings: lopinavir plus efavirenz and 2 NRTIs, cited from earlier work

| SMILES | patients with decrease in viral load to <400 copies/ml at week 24 (HIV-1; patients achieving NIQ>3.0) | patients with decrease in viral load to <400 copies/ml at week 24 (HIV-1; patients with NIQ<3.0) | concentration at 12 h [1] [ng/mL] | % of patients with viral load below 400 copies/mL at week 24 (HIV; lopinavir IQ 4-15) [%] | % of patients with viral load below 400 copies/mL at week 24 (HIV; lopinavir IQ <4) [%] | % of patients with viral load below 400 copies/mL at week 24 (HIV; lopinavir IQ >15) [%] |
| --- | --- | --- | --- | --- | --- | --- |
| CC(C)CN(C[C@@H](O)[C@H](Cc1ccccc1)NC(=O)O[C@H]1CCOC1)S(=O)(=O)c1ccc(N)cc1 [Amprenavir, amprenavir] | 7/8 | 1/9 | 1270 | – | – | – |
| Cc1cccc(C)c1OCC(=O)N[C@@H](Cc1ccccc1)[C@@H](O)C[C@H](Cc1ccccc1)NC(=O)[C@H](C(C)C)N1CCCNC1=O [lopinavir] | – | – | – | 80 | 70 | 100 |
